Source: patent US5475001A, “Quinazoline derivatives” (Zeneca Limited, priority 1993, dated 1995)

Assays:
receptor tyrosine kinase = biological target: T1, receptor tyrosine kinase (Homo sapiens, UniProt P00533); test: in vitro inhibition of the enzyme receptor tyrosine kinase (Test (a)); assay type: biochemical; settings: enzyme from A-431 cells, EGF stimulated
T1 construct: Receptor tyrosine kinase was obtained in partially purified form from A-431 cells; endogenous in cells; host or cells: A-431 cells (human vulval carcinoma), Triton X-100 solubilised membrane extract
Procedure: (a) An in vitro assay which determines the ability of a test compound to inhibit the enzyme receptor tyrosine kinase. Receptor tyrosine kinase was obtained in partially purified form from A-431 cells (derived from human vulval carcinoma) by procedures related to those described by Carpenter et. al., J. Biol. Chem., 1979, 254, 4884, Cohen et al., J. Biol. Chem., 1982, 257, 1523 and by Braun et al., J. Biol. Chem., 1984, 259, 2051.
A-431 cells were grown to confluence using Dulbecco's modified Eagle's medium (DMEM) containing 5% fetal calf serum (FCS). The obtained cells were homogenised in a hypotonic borate/EDTA buffer at pH 10.1. The homogenate was centrifuged at 400 g for 10 minutes at 0°-4° C. The supernatant was centrifuged at 25,000 g for 30 minutes at 0°-4° C. The pelleted material was suspended in 30 mM Hepes buffer at pH 7.4 containing 5% glycerol, 4 mM benzamidine and 1% Triton X-100, stirred for 1 hour at 0°-4° C., and recentrifuged at 100,000 g for 1 hour at 0°-4° C. The supernatant, containing solubilised receptor tyrosine kinase, was stored in liquid nitrogen.
For test purposes 40 μl of the enzyme solution so obtained was added to a mixture of 400 μl of a mixture of 150 mM Hepes buffer at pH 7.4, 500 μM sodium orthovanadate, 0.1% Triton X-100, 10% glycerol, 200 μl water, 80 μl of 25 mM DTT and 80μl of a mixture of 12.5 mM manganese chloride, 125 mM magnesium chloride and distilled water. There was thus obtained the test enzyme solution. […]
The test compound/EGF mixture solution (5 μl) was added to the test enzyme solution (10 μl) and the mixture was incubated at 0°-4° C. for 30 minutes. […] Radioactivity present in the filter paper was measured using a liquid scintillation counter (Sequence A). […]
Receptor tyrosine kinase inhibition was calculated as follows: [formula]
The extent of inhibition was then determined at a range of concentrations of test compound to give an IC50 value.

[1] = system: human naso-pharyngeal cancer cell line KB; test: in vitro inhibition of the growth of the human naso-pharyngeal cancer cell line KB (Test (b)); assay type: cell-based; settings: 72 h, KB cells, EGF (10 ng/ml), 3 days, MTT
Procedure: (b) An in vitro assay which determines the ability of a test compound to inhibit the growth of the human naso-pharyngeal cancer cell line KB.
KB cells were seeded into wells at a density of 1×10^4 -1.5×10^4 cells per well and grown for 24 hours in DMEM supplemented with 5% FCS (charcoal-stripped). Cell growth was determined after incubation for 3 days by the extent of metabolism of MTT tetrazolium dye to furnish a bluish colour. Cell growth was then determined in the presence of EGF (10 ng/ml) or in the presence of EGF (10 ng/ml) and a test compound at a range of concentrations. An IC50 value could then be calculated.

liver hepatocyte growth = test: in vivo inhibition of TGFα-stimulated liver hepatocyte growth in male rats (Test (c)); settings: Rattus norvegicus, po
Procedure: (c) An in vivo assay in a group of male rats which determines the ability of a test compound (usually administered orally as a ball-milled suspension in 0.5% polysorbate) to inhibit the stimulation of liver hepatocyte growth caused by the administration of the growth factor TGFα (400 μg/kg subcutaneously, usually dosed twice, 3 and 7 hours respectively after the administration of the test compound).
In a control group of rats, the administration of TGFα causes on average a 5-fold stimulation of liver hepatocyte growth.
Cell-growth in the control and test animals is determined as follows:
On the morning of the day after the dosing of the test compound (or 0.5% polysorbate in the control group), the animals are dosed with bromodeoxyuridine (BrdU; 100 mg/kg intraperitoneally). The animals are killed four hours later and the livers are excised.
Further tests were carried out using a range of doses of the test compounds to allow the calculation of an approximate ED50 value for the inhibition of liver hepatocyte proliferation as determined by inhibition of the uptake of BrdU.

[2] = system: human mammary carcinoma which expresses epidermal growth factor (EGF) receptor tyrosine kinase; settings: athymic nude mice; Toi et al., 1990; cited from earlier work
[3] = system: another carcinoma which does not express EGF receptor tyrosine kinase; settings: Toi et al., 1990; cited from earlier work

T1 sequence (P00533 25-1210): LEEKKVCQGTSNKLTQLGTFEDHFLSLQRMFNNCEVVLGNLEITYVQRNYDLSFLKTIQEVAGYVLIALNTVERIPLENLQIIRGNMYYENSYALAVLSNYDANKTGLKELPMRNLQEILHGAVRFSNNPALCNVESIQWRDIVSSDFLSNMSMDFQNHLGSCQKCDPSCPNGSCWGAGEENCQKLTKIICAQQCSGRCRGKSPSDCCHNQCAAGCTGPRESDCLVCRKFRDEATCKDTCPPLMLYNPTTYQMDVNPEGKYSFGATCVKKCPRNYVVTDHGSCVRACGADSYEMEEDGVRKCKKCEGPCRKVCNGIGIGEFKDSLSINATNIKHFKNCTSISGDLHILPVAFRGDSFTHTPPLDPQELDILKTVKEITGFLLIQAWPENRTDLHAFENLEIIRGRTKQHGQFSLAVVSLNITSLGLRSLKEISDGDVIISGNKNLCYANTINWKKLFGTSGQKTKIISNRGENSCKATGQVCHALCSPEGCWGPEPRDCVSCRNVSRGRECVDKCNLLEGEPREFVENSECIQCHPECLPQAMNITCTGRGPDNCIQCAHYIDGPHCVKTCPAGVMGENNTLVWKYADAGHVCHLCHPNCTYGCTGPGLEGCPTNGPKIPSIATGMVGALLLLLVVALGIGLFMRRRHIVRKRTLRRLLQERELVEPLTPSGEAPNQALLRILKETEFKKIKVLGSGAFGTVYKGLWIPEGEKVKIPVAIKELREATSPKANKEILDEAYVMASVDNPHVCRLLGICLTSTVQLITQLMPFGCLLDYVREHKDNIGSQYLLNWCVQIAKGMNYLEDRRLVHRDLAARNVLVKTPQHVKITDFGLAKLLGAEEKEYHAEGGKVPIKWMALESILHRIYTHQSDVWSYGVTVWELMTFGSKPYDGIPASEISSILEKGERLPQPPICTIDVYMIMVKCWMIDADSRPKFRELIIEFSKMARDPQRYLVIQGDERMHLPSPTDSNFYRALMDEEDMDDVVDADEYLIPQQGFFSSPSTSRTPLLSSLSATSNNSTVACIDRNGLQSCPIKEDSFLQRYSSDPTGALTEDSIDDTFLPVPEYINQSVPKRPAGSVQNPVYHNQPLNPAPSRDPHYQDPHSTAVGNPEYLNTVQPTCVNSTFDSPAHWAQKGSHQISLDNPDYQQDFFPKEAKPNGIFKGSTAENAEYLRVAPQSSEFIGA
T1 sequence (P01133 971-1023 partner limits assumed): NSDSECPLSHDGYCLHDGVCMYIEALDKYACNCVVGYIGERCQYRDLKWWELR

Structure (SMILES)	IC50 (receptor tyrosine kinase) [nM]	IC50 [1] [nM]	ED50 (liver hepatocyte growth) [mg/kg]	growth of transplanted human mammary carcinoma expressing EGF receptor tyrosine kinase [2]	growth of another carcinoma which does not express EGF receptor tyrosine kinase [3]
COc1cc2c(Nc3ccc(F)c(Cl)c3)ncnc2cc1F [4-(3'-chloro-4'-fluoroanilino)-7-fluoro-6-methoxyquinazoline]	70	530	< 12.5	–	–
Cc1cccc(Nc2ncnc3cc(F)c(NC(=O)CCl)cc23)c1 [6-(2-chloroacetamido)-7-fluoro-4-(3'-methylanilino)quinazoline]	10	20	–	–	–
Cc1cccc(Nc2ncnc3cc(F)c(N)cc23)c1 [6-amino-7-fluoro-4-(3'-methylanilino)quinazoline]	75	680	< 40	–	–
O=CN/C=C/c1cc(O)ccc1O [erbstatin]	–	–	–	specifically attenuates the growth	without effect on the growth
